pIC50: −log10 of the molar value. Where two headings read alike, the source gives them in different places.
What was measured:
[1] = in vitro; details: human; for viability at 2 days, 3.13 µM / viability at 2 days, 6.25 µM / viability at 2 days, 12.5 µM / viability at 2 days, 25 µM / viability at 2 days, 50 µM / viability at 2 days, 100 µM: HEK293 cells (Flp-In-293); for viability at 2 days, 3.13 µM / viability at 2 days, 6.25 µM / viability at 2 days, 12.5 µM / viability at 2 days, 25 µM / viability at 2 days, 50 µM / viability at 2 days, 100 µM / viability: HEK293 viability
[2] = test system: L1 wild-type C. elegans
[3] = biological target: C. elegans (N2) complex I (NADH:ubiquinone oxidoreductase) (Caenorhabditis elegans, UniProt P24887+Q93873+Q94360); assay: biochemical; format: biochemical; details: for activity at 0.0001 µM / activity at 0.0005 µM / activity at 0.001 µM / activity at 0.0025 µM / activity at 0.005 µM / activity at 0.013 µM / activity at 0.025 µM / activity at 0.063 µM / activity at 0.125 µM / activity at 0.313 µM / activity at 0.625 µM / activity at 1.5 µM / activity at 3 µM / activity at 15 µM / activity at 37.5 µM / activity at 75 µM: read-out: C. elegans mitochondrial complex I activity; for Log IC50 C. elegans complex I: log10 of IC50 in µM, C. elegans mitochondria
Procedure, shortened: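 Mitochondria, 0.2 mg/mL protein, freeze-thawed three times, assayed in 25 mM KPi pH 7.5 with BSA, 80 μM NADH, 60 μM decylubiquinone, 160 μM DCIP, antimycin A and KCN. Rate from initial linear slope of A600 over 15 min. % of solvent control.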

[4] = 50 μM, […], hit = relative motility below 0.25 3 hours after removal of KCN
[5] = Dose 0.2 µM, mean of at least three biological replicates
[6] = in vitro complex I dose response on C. elegans mitochondria, average of at least two biological replicates, fit in R (DRC), read-out: IC50 C. elegans complex I
[7] = wild-type C. elegans mitochondria, estimated from fitted dose-response curves, read-out: C. elegans Complex I IC50
[8] = HEK293 Cell Viability Assay LC50, HEK293 cells, estimated from fitted dose-response curves
[9] = 50 μM, […], KCN survival assay, hit = relative motility below 0.25
[10] = wild-type (N2) mitochondria, read-out: C. elegans Complex I IC50
[11] = wild-type C. elegans mitochondria, read-out: C. elegans Complex I IC50
[12] = HEK293 Cell Viability Assay LC50, HEK293 cells, estimated from fitted dose-response curves, mean of at least two biological replicates

Sequence of C. elegans (N2) complex I (NADH:ubiquinone oxidoreductase) (Q94360 17-199): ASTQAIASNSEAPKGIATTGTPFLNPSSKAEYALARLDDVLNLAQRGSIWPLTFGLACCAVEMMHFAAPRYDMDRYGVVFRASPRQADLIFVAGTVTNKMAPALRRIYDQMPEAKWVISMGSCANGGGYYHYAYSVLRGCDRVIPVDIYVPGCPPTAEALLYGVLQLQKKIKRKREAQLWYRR
Sequence of C. elegans (N2) complex I (NADH:ubiquinone oxidoreductase) (P24887 whole entry): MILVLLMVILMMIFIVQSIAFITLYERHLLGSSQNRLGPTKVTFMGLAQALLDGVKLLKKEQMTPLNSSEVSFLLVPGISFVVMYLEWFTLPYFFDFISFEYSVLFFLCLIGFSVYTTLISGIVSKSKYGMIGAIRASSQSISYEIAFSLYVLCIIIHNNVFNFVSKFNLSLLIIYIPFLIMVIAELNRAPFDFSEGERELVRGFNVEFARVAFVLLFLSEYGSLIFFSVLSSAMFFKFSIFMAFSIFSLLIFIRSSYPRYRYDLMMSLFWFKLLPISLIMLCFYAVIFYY
Sequence of C. elegans (N2) complex I (NADH:ubiquinone oxidoreductase) (Q93873 31-482): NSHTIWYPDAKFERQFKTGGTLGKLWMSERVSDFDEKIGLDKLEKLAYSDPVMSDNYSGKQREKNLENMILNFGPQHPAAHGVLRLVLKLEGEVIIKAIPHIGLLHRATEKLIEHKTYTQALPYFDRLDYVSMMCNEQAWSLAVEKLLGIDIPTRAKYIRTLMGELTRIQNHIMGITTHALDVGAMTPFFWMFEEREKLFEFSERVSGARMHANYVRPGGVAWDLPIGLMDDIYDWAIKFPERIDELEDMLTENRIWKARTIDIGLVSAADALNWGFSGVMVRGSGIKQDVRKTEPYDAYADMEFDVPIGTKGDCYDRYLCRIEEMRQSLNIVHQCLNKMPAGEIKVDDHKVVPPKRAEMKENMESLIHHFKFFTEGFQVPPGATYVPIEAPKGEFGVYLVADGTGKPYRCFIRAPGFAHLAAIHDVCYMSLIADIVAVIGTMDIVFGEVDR

| Compound | viability at 2 days, 12.5 µM [1] [%] | viability at 2 days, 25 µM [1] [%] | viability at 2 days, 50 µM [1] [%] | viability at 2 days, 100 µM [1] [%] | C. elegans KCN Survival [2, 5] | C. elegans KCN Survival ([2]; Dose 0.39 µM) | C. elegans KCN Survival ([2]; Dose 1.56 µM) | C. elegans KCN Survival ([2]; Dose 3.13 µM) | C. elegans KCN Survival ([2]; Dose 6.25 µM) | C. elegans KCN Survival ([2]; Dose 12.5 µM) | C. elegans KCN Survival ([2]; Dose 25 µM) | C. elegans KCN Survival ([2]; Dose 50 µM) | C. elegans KCN Survival ([2]; Dose 100 µM) | activity at 0.0001 µM [3] [%] | activity at 0.0005 µM [3] [%] | pIC50 [3, 6] | Log IC50 C. elegans complex I [3] [µM] | pIC50 [3, 7] | Screen "Hit" [2, 9] | pIC50 [3, 10] | other results |
| --- | --- | --- | --- | --- | --- | --- | --- | --- | --- | --- | --- | --- | --- | --- | --- | --- | --- | --- | --- | --- | --- |
| Cc1cccc(OCCn2c(C)nc3ccccc32)c1 [Compound 6285199] | 100 | 100 | 98.3 | 46.5 | 1.002 | 1.011 | 0.994 | 1.093 | 0.980 | 0.810 | 0.165 | 0.143 | 0.167 | 94.3 | 99.3 | 6.08 | -0.0757 | 6.08 |  |  | CC50 at 2 days [1]: 97.7 µM; viability at 2 days, 3.13 µM ([1]; Dose 3.13 µM): 100%; viability at 2 days, 6.25 µM ([1]; Dose 6.25 µM): 100%; Screen "Hit" [2, 4]: Y (hits were identified as compounds that reduced relative motility below 0.25 (75% reduction)); activity at 0.001 µM [3]: 86.9%; activity at 0.0025 µM [3]: 85.8%; activity at 0.005 µM [3]: 87.6%; activity at 0.013 µM [3]: 90.6%; activity at 0.025 µM [3]: 92.4%; activity at 0.063 µM [3]: 78.1%; activity at 0.125 µM [3]: 81.6%; activity at 0.313 µM [3]: 54.6%; activity at 0.625 µM [3]: 53.7%; activity at 1.5 µM [3]: 35.3%; activity at 3 µM [3]: 23.4%; activity at 15 µM [3]: 3.64%; activity at 37.5 µM [3]: 1.37%; activity at 75 µM [3]: 1.88% |
| Cc1ccc(Cn2c(C(C)C)nc3ccccc32)cc1 [Compound 6586153] |  |  |  |  |  |  |  |  |  |  |  |  |  |  |  | 5.03 | 0.97 |  | Y (hits were identified as compounds that reduced relative motility below 0.25 (75% reduction)) | 5.03 | CC50 at 2 days [1, 8]: > 100 µM; pIC50 [3, 11]: 5.03 |
| Cc1nc2ccccc2n1Cc1ccccc1Cl [Compound 6707368] |  |  |  |  |  |  |  |  |  |  |  |  |  |  |  | 6.25 | -0.25 | 6.25 | Y (hits were identified as compounds that reduced relative motility below 0.25 (75% reduction)) | 6.25 | CC50 at 2 days [1]: > 100 µM |
| Clc1ccc(Cn2cnc3ccccc32)c(Cl)c1 [Compound 6750659] | 100 | 100 | 76 | 19.4 | 0.888 | 0.896 | 0.908 | 0.544 | 0.267 | 0.023 | 0.000 | 0.000 | 0.000 | 89.4 | 104 | 6.35 | -0.35 | 6.35 | Y (hits were identified as compounds that reduced relative motility below 0.25 (75% reduction)) | 6.35 | CC50 at 2 days [1, 12]: 72.7 µM; viability at 2 days, 3.13 µM ([1]; Dose 3.13 µM): 95.5%; viability at 2 days, 6.25 µM ([1]; Dose 6.25 µM): 100%; activity at 0.001 µM [3]: 101%; activity at 0.0025 µM [3]: 110%; activity at 0.005 µM [3]: 103%; activity at 0.013 µM [3]: 98.1%; activity at 0.025 µM [3]: 98.4%; activity at 0.063 µM [3]: 84.8%; activity at 0.125 µM [3]: 79.5%; activity at 0.313 µM [3]: 62.1%; activity at 0.625 µM [3]: 45.6%; activity at 1.5 µM [3]: 24.9%; activity at 3 µM [3]: 16.1%; activity at 15 µM [3]: 4.66%; activity at 37.5 µM [3]: 3.82%; activity at 75 µM [3]: 5.12% |
| C=CCn1c(-c2ccc(N(C)C)cc2)nc2ccccc21 [Compound 6873298] |  |  |  |  |  |  |  |  |  |  |  |  |  |  |  | 4.88 | 1.12 | 4.88 | Y (hits were identified as compounds that reduced relative motility below 0.25 (75% reduction)) |  | CC50 at 2 days [1, 12]: 65.3 µM |
| Cc1ccc(CSCc2nc3ccccc3[nH]2)cc1 [Compound 7121781] | 90 | 91.3 | 64.3 | 28.3 | 1.008 | 0.850 | 0.802 | 0.857 | 0.615 | 0.348 | 0.053 | 0.003 | 0.000 | 100 | 95.4 | 4.54 | 1.46 |  |  |  | CC50 at 2 days [1]: 74.2 µM; viability ([1]; Dose 3.13 µM): 86.1%; viability ([1]; Dose 6.25 µM): 87.2%; Screen "Hit" [2, 4]: Y (hits were identified as compounds that reduced relative motility below 0.25 (75% reduction)); Relative Motility ([2]; 50 μM, […], worm motility 3 hours after removal of KCN, relative to DMSO controls, single biological replicate): 0.077; activity at 0.001 µM [3]: 94.3%; activity at 0.0025 µM [3]: 98%; activity at 0.005 µM [3]: 98.1%; activity at 0.013 µM [3]: 104%; activity at 0.025 µM [3]: 99.3%; activity at 0.063 µM [3]: 89.7%; activity at 0.125 µM [3]: 95.8%; activity at 0.313 µM [3]: 87.2%; activity at 0.625 µM [3]: 99.9%; activity at 1.5 µM [3]: 94%; activity at 3 µM [3]: 73.4%; activity at 15 µM [3]: 71.1%; activity at 37.5 µM [3]: 43.5%; activity at 75 µM [3]: 23.3%; pIC50 [3, 11]: 4.54 |
| Clc1ccc(OCCn2cnc3ccccc32)c(Cl)c1 [Compound 7221649] | 100 | 100 | 61.2 | 7.3 | 0.959 | 0.956 | 1.007 | 1.008 | 0.946 | 0.599 | 0.152 | 0.156 | 0.254 | 92.4 | 97.1 | 5.38 | 0.62 |  |  |  | CC50 at 2 days [1, 8]: 55.3 µM; viability at 2 days, 3.13 µM ([1]; Dose 3.13 µM): 100%; viability at 2 days, 6.25 µM ([1]; Dose 6.25 µM): 100%; Screen "Hit" [2, 4]: Y (hits were identified as compounds that reduced relative motility below 0.25 (75% reduction)); activity at 0.001 µM [3]: 98.6%; activity at 0.0025 µM [3]: 106%; activity at 0.005 µM [3]: 107%; activity at 0.013 µM [3]: 101%; activity at 0.025 µM [3]: 101%; activity at 0.063 µM [3]: 94.8%; activity at 0.125 µM [3]: 93.4%; activity at 0.313 µM [3]: 89.3%; activity at 0.625 µM [3]: 84.8%; activity at 1.5 µM [3]: 71.9%; activity at 3 µM [3]: 58.5%; activity at 15 µM [3]: 22.2%; activity at 37.5 µM [3]: 11.4%; activity at 75 µM [3]: 6.54%; pIC50 [3, 11]: 5.38 |
| Nc1nc2ccccc2n1Cc1ccc(Br)cc1 [Compound 7313068] |  |  |  |  |  |  |  |  |  |  |  |  |  |  |  | 6.47 | -0.47 | 6.47 | Y (hits were identified as compounds that reduced relative motility below 0.25 (75% reduction)) | 6.47 | CC50 at 2 days [1, 12]: 41.7 µM |
| Cc1nc2ccccc2n1Cc1ccc(C(C)C)cc1 [Compound 7353551] |  |  |  |  |  |  |  |  |  |  |  |  |  |  |  | 6.37 | -0.37 | 6.37 |  | 6.37 | CC50 at 2 days [1, 12]: 46.2 µM; Screen "Hit" ([2]; 50 μM compound, […], hit = relative motility below 0.25 3 hours after removal of KCN): Y (hits were identified as compounds that reduced relative motility below 0.25 (75% reduction)) |

Reference: PMC11079024, “Identification of a family of species-selective complex I inhibitors as potential anthelmintics” (Nature Communications, 2024)
